Source: paper PMC8699473, “An Easily Expandable Multi-Drug LC-MS Assay for the Simultaneous Quantification of 57 Oral Antitumor Drugs in Human Plasma” (Cancers, 2021)

Assay: Autosampler stability of ready for injection samples
Assay type: physicochemical, human

Row | Structure (SMILES) | Autosampler (24h, 4°C) Accuracy [%] (validation standard 2xLLOV) | Autosampler (72h, 4°C) Accuracy [%] (validation standard 2xLLOV) | Autosampler (24h, 4°C) Accuracy [%] (validation standard LLOV) | Autosampler (72h, 4°C) Accuracy [%] (validation standard LLOV) | Autosampler (24h, 4°C) Accuracy [%] (validation standard MOV) | Autosampler (72h, 4°C) Accuracy [%] (validation standard MOV) | Autosampler (24h, 4°C) Accuracy [%] (validation standard ULOV) | Autosampler (72h, 4°C) Accuracy [%] (validation standard ULOV)
1 | CC1(C)CCC(CN2CCN(c3ccc(C(=O)NS(=O)(=O)c4ccc(NCC5CCOCC5)c([N+](=O)[O-])c4)c(Oc4cnc5[nH]ccc5c4)c3)CC2)=C(c2ccc(Cl)cc2)C1 [Venetoclax] | 106.9 | 104.7 | 106.3 | 103.3 | 100.0 | 102.3 | 103.7 | 102.7
2 | CNC(=O)c1cc(Oc2ccc(NC(=O)Nc3ccc(Cl)c(C(F)(F)F)c3)cc2)ccn1 [Sorafenib] | 103.1 | 104.1 | 112.0 | 104.9 | 101.0 | 103.5 | 101.7 | 98.3
3 | N#CC[C@H](C1CCCC1)n1cc(-c2ncnc3[nH]ccc23)cn1 [Ruxolitinib] | 100.5 | 97.7 | 93.9 | 94.4 | 102.4 | 99.7 | 100.1 | 99.7
4 | COc1cc2c(Nc3ccc(Br)cc3F)ncnc2cc1OCC1CCN(C)CC1 [Vandetanib] | 103.5 | 102.7 | 85.9 | 83.5 | 108.2 | 101.8 | 95.3 | 94.4
5 | CNC(=O)c1ccccc1Sc1ccc2c(/C=C/c3ccccn3)n[nH]c2c1 [Axitinib] | 101.2 | 104.9 | 105.9 | 97.7 | 102.7 | 100.0 | 100.4 | 99.1
6 | Cc1nc(Nc2ncc(C(=O)Nc3c(C)cccc3Cl)s2)cc(N2CCN(CCO)CC2)n1 [Dasatinib] | 102.9 | 106.3 | 116.5 | 114.9 | 102.8 | 99.0 | 102.6 | 101.0
7 | CO[C@@H]1[C@H](N(C)C(=O)c2ccccc2)C[C@H]2O[C@]1(C)n1c3ccccc3c3c4c(c5c6ccccc6n2c5c31)C(=O)NC4 [Midostaurin] | 103.3 | 103.0 | 109.7 | 108.2 | 101.4 | 103.7 | 102.8 | 97.9
8 | O=C(Nc1cnn2ccc(N3CCC[C@@H]3c3cc(F)ccc3F)nc12)N1CC[C@H](O)C1 [Larotrectinib] | 87.6 | 100.3 | 79.4 | 75.5 | 104.6 | 101.2 | 102.3 | 104.4
9 | O=c1[nH]c(=O)n([C@H]2C[C@H](O)[C@@H](CO)O2)cc1C(F)(F)F [Trifluridine] | 117.8 | 107.4 | 97.0 | 86.9 | 113.1 | 102.7 | 104.4 | 98.4
10 | CN(C)C/C=C/C(=O)Nc1cc2c(Nc3ccc(F)c(Cl)c3)ncnc2cc1O[C@H]1CCOC1 [Afatinib] | 103.2 | 99.3 | 91.7 | 83.0 | 102.6 | 103.4 | 98.7 | 99.3
11 | CCN1CCN(Cc2ccc(Nc3ncc(F)c(-c4cc(F)c5nc(C)n(C(C)C)c5c4)n3)nc2)CC1 [Abemaciclib] | 99.5 | 95.3 | 89.1 | 86.1 | 100.7 | 96.7 | 102.6 | 100.1
12 | CNCc1ccc(-c2[nH]c3cc(F)cc4c3c2CCNC4=O)cc1 [Rucaparib] | 98.1 | 96.4 | 104.5 | 104.1 | 104.6 | 103.8 | 100.1 | 102.4
13 | COC(=O)c1ccc2c(c1)NC(=O)/C2=C(\Nc1ccc(N(C)C(=O)CN2CCN(C)CC2)cc1)c1ccccc1 [Nintedanib] | 104.2 | 104.4 | 91.3 | 99.8 | 102.7 | 104.6 | 102.7 | 101.4
14 | CCCS(=O)(=O)Nc1ccc(F)c(C(=O)c2c[nH]c3ncc(-c4ccc(Cl)cc4)cc23)c1F [Vemurafenib] | 103.5 | 102.3 | 112.7 | 109.4 | 99.5 | 101.8 | 104.1 | 99.4
15 | CS(=O)(=O)c1ccc(C(=O)Nc2ccc(Cl)c(-c3ccccn3)c2)c(Cl)c1 [Vismodegib] | 105.1 | 109.2 | 84.9 | 85.6 | 108.4 | 107.5 | 96.6 | 99.7
